Assay results as given in article PMC10419279, “Biochemical and Functional Characterization of the Three Zebrafish Transglutaminases 2” (International Journal of Molecular Sciences, 2023).
Blank lines part the entries; values can stand above or below the compound they belong to. Square brackets hold non-standard residues; d marks the D form. Peptide text beside a SMILES is read from it. * marks the point of attachment. DON = [N-]=[N+]=CC(=O)CC[C@H](N)C(=O)O; Cbz = O=C(OCc1ccccc1)*

Experiments:
Assay in all cases: ELISA, pentylamine-biotin incorporation into coated N,N-dimethylcasein
Assay type in all cases: biochemical
zTG2a [1] = target: T1, zTG2a (Danio rerio, UniProt Q66L63); conditions: 50 ng enzyme, 0.2 mM pentylamine-biotin, 5 mM CaCl2, 10 mM DTT, pH 8.0, 37 °C, 1 h; GTP 100 µM (methods) or 100 mM (figure legend)
T1 construct: gene tgm2a; full-length CDS in pET30a(+), His6-tagged (text: C-terminal His-tag; reverse primer keeps stop codon), E. coli BL21(DE3), Ni-NTA; primer-encoded N-terminus MERVVE, C-terminus LVIYE
T1 sequence (Q66L63 1-679): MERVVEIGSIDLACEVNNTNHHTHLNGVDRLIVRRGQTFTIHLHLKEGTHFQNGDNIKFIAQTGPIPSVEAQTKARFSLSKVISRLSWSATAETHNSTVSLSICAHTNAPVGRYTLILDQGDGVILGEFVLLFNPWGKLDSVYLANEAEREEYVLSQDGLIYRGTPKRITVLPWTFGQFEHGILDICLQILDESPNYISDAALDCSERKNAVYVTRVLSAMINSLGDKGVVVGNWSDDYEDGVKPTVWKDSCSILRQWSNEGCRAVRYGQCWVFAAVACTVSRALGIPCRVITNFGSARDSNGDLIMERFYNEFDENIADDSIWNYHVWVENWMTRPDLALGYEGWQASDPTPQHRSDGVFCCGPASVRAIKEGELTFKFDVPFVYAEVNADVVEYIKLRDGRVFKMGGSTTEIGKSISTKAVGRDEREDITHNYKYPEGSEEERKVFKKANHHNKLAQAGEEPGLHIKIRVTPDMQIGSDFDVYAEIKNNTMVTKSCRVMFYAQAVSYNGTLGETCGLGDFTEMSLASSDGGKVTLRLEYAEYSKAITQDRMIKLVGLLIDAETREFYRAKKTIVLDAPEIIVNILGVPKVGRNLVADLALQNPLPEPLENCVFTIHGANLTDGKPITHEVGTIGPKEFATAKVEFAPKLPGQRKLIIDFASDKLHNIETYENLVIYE

hTG2 [2] = target: T2, hTG2 (Homo sapiens, UniProt P21980); conditions: 50 ng enzyme, 0.2 mM pentylamine-biotin, 5 mM CaCl2, 10 mM DTT, pH 8.0, 37 °C, 1 h; GTP 100 µM (methods) or 100 mM (figure legend)
T2 construct: gene TGM2; recombinant hTG2 used as positive control; source and tag of purified protein not detailed; 77 kDa
T2 sequence (P21980 2-687): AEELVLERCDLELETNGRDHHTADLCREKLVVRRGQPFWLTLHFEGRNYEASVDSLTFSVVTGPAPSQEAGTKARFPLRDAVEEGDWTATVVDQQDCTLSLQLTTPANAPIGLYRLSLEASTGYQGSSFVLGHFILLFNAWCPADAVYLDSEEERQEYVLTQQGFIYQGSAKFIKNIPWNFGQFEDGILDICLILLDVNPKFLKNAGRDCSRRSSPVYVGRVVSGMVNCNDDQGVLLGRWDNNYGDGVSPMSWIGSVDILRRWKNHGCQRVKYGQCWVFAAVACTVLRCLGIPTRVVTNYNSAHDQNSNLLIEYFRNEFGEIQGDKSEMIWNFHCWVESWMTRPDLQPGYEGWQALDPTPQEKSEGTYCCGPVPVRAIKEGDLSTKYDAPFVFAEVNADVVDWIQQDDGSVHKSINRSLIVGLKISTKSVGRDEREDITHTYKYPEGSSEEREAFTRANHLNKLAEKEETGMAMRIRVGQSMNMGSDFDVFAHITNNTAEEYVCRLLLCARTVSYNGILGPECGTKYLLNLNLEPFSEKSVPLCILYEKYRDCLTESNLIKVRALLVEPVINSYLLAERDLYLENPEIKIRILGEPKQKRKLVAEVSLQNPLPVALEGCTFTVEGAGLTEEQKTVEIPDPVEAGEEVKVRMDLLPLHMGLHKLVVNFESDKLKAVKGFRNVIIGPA

zTG2b [3] = target: T3, zTG2b (Danio rerio, UniProt A0ACM8QA61); conditions: 50 ng enzyme, 0.2 mM pentylamine-biotin, 5 mM CaCl2, 10 mM DTT, pH 8.0, 37 °C, 1 h; methods print inhibitor doses as mM
T3 construct: gene tgm2b; full-length CDS in pET30a(+), His6-tagged (text: C-terminal His-tag; reverse primer keeps stop codon), E. coli BL21(DE3), Ni-NTA; primer-encoded N-terminus MALDIG, C-terminus VIIGK
T3 sequence (A0ACM8QA61 1-679): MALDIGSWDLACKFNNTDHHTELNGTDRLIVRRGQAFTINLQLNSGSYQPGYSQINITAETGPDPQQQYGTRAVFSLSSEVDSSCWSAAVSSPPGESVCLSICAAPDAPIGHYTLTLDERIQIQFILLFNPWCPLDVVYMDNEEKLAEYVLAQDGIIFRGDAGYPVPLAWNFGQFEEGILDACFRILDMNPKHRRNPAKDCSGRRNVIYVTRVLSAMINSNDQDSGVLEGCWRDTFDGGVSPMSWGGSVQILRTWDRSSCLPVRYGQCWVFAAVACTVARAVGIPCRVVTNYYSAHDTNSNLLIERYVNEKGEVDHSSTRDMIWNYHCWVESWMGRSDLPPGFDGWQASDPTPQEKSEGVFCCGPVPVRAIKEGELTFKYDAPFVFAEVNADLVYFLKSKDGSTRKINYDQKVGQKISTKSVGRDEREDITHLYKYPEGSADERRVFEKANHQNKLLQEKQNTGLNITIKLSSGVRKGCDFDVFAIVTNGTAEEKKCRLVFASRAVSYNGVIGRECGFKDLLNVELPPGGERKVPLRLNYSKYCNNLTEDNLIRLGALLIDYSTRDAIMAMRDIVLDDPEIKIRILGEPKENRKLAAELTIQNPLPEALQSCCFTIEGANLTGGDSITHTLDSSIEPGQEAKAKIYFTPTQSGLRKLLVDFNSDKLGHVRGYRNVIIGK

zTG2a [4] = target: T1, zTG2a
zTG2like [5] = target: T4, zTG2like (Danio rerio, UniProt A3KQ87)
T4 construct: gene tgm2l; full-length CDS in pET30a(+), His6-tagged (text: C-terminal His-tag; reverse primer keeps stop codon), E. coli BL21(DE3), Ni-NTA; primer-encoded N-terminus MASYNA, C-terminus AVPEI
T4 sequence (A3KQ87 1-692): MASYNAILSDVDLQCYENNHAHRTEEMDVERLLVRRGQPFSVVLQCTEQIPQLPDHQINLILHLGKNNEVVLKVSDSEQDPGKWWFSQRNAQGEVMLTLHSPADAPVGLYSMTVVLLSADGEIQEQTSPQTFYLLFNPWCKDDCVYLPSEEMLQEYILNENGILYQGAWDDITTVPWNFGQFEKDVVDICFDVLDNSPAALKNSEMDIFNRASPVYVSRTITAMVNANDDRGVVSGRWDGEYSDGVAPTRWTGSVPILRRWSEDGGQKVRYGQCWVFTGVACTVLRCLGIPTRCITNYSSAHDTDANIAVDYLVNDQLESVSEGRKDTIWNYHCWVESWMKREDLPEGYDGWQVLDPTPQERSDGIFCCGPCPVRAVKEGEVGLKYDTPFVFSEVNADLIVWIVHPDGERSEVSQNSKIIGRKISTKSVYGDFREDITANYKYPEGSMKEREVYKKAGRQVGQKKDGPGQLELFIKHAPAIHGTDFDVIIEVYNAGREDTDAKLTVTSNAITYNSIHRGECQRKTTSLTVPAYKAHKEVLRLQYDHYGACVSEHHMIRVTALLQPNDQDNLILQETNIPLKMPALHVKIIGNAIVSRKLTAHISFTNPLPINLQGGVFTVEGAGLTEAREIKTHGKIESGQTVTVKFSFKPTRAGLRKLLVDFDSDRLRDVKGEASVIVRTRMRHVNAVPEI

zTG2a [6] = target: T1, zTG2a; conditions: amine co-substrate with N,N-dimethylcasein; 5 mM CaCl2, 10 mM DTT, pH 8.0, 37 °C
Excerpt: ELISA, pentylamine-biotin incorporation into coated N,N-dimethylcasein on zTG2a | incorporate pentylamine-biotin into the substrate N,N-dimethylcasein in solution. All three zebrafish TGs2

zTG2b [7] = target: T3, zTG2b; conditions: amine co-substrate with N,N-dimethylcasein; 5 mM CaCl2, 10 mM DTT, pH 8.0, 37 °C
Excerpt: ELISA, pentylamine-biotin incorporation into coated N,N-dimethylcasein on zTG2b | incorporate pentylamine-biotin into the substrate N,N-dimethylcasein in solution. All three zebrafish TGs2

hTG2 [8] = target: T2, hTG2; conditions: amine co-substrate with N,N-dimethylcasein; 5 mM CaCl2, 10 mM DTT, pH 8.0, 37 °C
zTG2like [9] = target: T4, zTG2like; conditions: amine co-substrate with N,N-dimethylcasein; 5 mM CaCl2, 10 mM DTT, pH 8.0, 37 °C
Excerpt: ELISA, pentylamine-biotin incorporation into coated N,N-dimethylcasein on zTG2like | incorporate pentylamine-biotin into the substrate N,N-dimethylcasein in solution. All three zebrafish TGs2

SMILES: Nc1nc2c(ncn2[C@@H]2O[C@H](COP(=O)(O)OP(=O)(O)OP(=O)(O)O)[C@@H](O)[C@H]2O)c(=O)[nH]1 [GTP]
- % inhibition (zTG2a [1]): zTG2a is the only zebrafish TG2 whose activity is affected by the presence of GTP
- % inhibition (hTG2 [2]): the inhibitory effect of GTP was only one third of that observed for the human enzyme

- % inhibition at 25 μM (zTG2b [3]): ~ 50%
- inhibition at 25 µM (zTG2a [4]): ~50%
- inhibition at 25 µM (zTG2like [5]): ~50%
SMILES: COC(=O)[C@H](CC(C)C)NC(=O)[C@@H]1CCCN1C(=O)[C@@H](NC(=O)[C@H](CCC(=O)C=[N+]=[N-])NC(=O)OCc1ccccc1)C(C)C [ZDON] (Cbz-[DON]VPL-OMe)

SMILES: NCCCCCNC(=O)CCCC[C@@H]1SC[C@@H]2NC(=O)N[C@@H]21 [pentylamine-biotin]
- ELISA, pentylamine-biotin incorporation into coated N,N-dimethylcasein (zTG2a [6]): incorporate pentylamine-biotin into the substrate N,N-dimethylcasein in solution. All three zebrafish TGs2
- ELISA, pentylamine-biotin incorporation into coated N,N-dimethylcasein (zTG2b [7]): incorporate pentylamine-biotin into the substrate N,N-dimethylcasein in solution. All three zebrafish TGs2
- ELISA, pentylamine-biotin incorporation into coated N,N-dimethylcasein (hTG2 [8]): as well as the human enzyme were able to mediate the transamidation reaction
- ELISA, pentylamine-biotin incorporation into coated N,N-dimethylcasein (zTG2like [9]): incorporate pentylamine-biotin into the substrate N,N-dimethylcasein in solution. All three zebrafish TGs2
